# The supplement of paper PMC10307832
# Experiments:
# Assay in all cases: relative viability (nuclei count vs DMSO), 5 days (fraction); higher = more cells survive
# Afatinib = compound: CN(C)C/C=C/C(=O)Nc1cc2c(Nc3ccc(F)c(Cl)c3)ncnc2cc1O[C@H]1CCOC1 [Afatinib]
# How it was run: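 Viability was defined as treated-well nuclei divided by vehicle-well nuclei, with the median taken over replicate plates. Cells from lung cancer lines sat overnight at 37 °C in 1536-well plates, received five √10-spaced library-drug doses by pinning on vehicle-anchored plates, and grew 5 days without medium change before one-step fixation, permeabilisation and Hoechst staining, 4× imaging and MetaXpress nuclear counts. Only plates with control CV under 25% and at least one doubling were kept.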
# Afatinib + Navitoclax = compound: CN(C)C/C=C/C(=O)Nc1cc2c(Nc3ccc(F)c(Cl)c3)ncnc2cc1O[C@H]1CCOC1 [Afatinib] + CC1(C)CCC(c2ccc(Cl)cc2)=C(CN2CCN(c3ccc(C(=O)NS(=O)(=O)c4ccc(N[C@H](CCN5CCOCC5)CSc5ccccc5)c(S(=O)(=O)C(F)(F)F)c4)cc3)CC2)C1 [Navitoclax] (partner 0.5 µM)
# How it was run: (§1)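 The day after seeding in 1536-well plates, lung cancer cell lines were treated by pin tool with a single drug, or with a fixed anchor-drug dose together with five library-drug doses (not always all listed) in √10 steps. After 5 days, a combined fix-and-stain solution (final 0.05% Triton X-100, 1% formaldehyde, 1 ug/ml Hoechst) was added. Nuclei counted on 4× images gave relative viability as treated counts over vehicle counts, reported as the median of duplicate plates.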
# Afatinib + Tozasertib = compound: CN(C)C/C=C/C(=O)Nc1cc2c(Nc3ccc(F)c(Cl)c3)ncnc2cc1O[C@H]1CCOC1 [Afatinib] + Cc1cc(Nc2cc(N3CCN(C)CC3)nc(Sc3ccc(NC(=O)C4CC4)cc3)n2)n[nH]1 [Tozasertib] (partner 0.1 µM)
# How it was run: as §1
# Afatinib + Phenformin = compound: CN(C)C/C=C/C(=O)Nc1cc2c(Nc3ccc(F)c(Cl)c3)ncnc2cc1O[C@H]1CCOC1 [Afatinib] + N=C(N)NC(=N)NCCc1ccccc1 [Phenformin] (partner 250 µM)
# How it was run: as §1
Cell Line,relative viability (Afatinib; 0.005 µM),relative viability (Afatinib; 0.01581 µM),relative viability (Afatinib; 0.05 µM),relative viability (Afatinib; 0.1581 µM),relative viability (Afatinib; 0.5 µM),relative viability (Afatinib + Navitoclax; first compound 0.005 µM),relative viability (Afatinib + Navitoclax; first compound 0.01581 µM),relative viability (Afatinib + Navitoclax; first compound 0.05 µM),relative viability (Afatinib + Navitoclax; first compound 0.1581 µM),relative viability (Afatinib + Navitoclax; first compound 0.5 µM),relative viability (Afatinib + Tozasertib; first compound 0.005 µM),relative viability (Afatinib + Tozasertib; first compound 0.01581 µM),relative viability (Afatinib + Tozasertib; first compound 0.05 µM),relative viability (Afatinib + Tozasertib; first compound 0.1581 µM),relative viability (Afatinib + Tozasertib; first compound 0.5 µM),relative viability (Afatinib + Phenformin; first compound 0.005 µM),relative viability (Afatinib + Phenformin; first compound 0.01581 µM),relative viability (Afatinib + Phenformin; first compound 0.05 µM),relative viability (Afatinib + Phenformin; first compound 0.1581 µM),relative viability (Afatinib + Phenformin; first compound 0.5 µM)
NCI-H520,1.08,0.978,0.995,1,0.96,1.21,1.15,1.02,1.1,1.11,0.435,0.355,0.462,0.342,0.422,0.562,0.593,0.689,0.609,0.57
NCI-H596,1.09,0.913,0.933,0.936,0.928,1.01,0.94,1.03,0.815,0.934,0.848,0.881,0.92,0.777,0.772,0.804,0.804,0.729,0.753,0.685
NCI-H647,0.999,0.878,0.998,0.968,1.04,1.09,0.951,1.16,1.13,1.39,0.251,0.263,0.417,0.211,0.276,0.664,0.481,0.57,0.692,0.445
NCI-H727,0.787,0.765,0.758,0.694,0.837,0.371,0.349,0.407,0.345,0.353,0.597,0.614,0.543,0.514,0.449,0.493,,0.299,0.613,0.442
NCI-H838,1.01,0.966,0.988,0.918,1.05,1.12,1.14,1.27,1.2,1.16,0.29,0.264,0.282,0.222,0.276,0.675,0.54,0.582,0.567,0.553
NCI-H1355,0.976,0.959,0.943,0.849,0.893,0.807,1.02,0.823,0.764,0.792,0.577,0.517,0.522,0.501,0.464,0.484,0.491,0.482,0.424,0.421
NCI-H1395,1.07,0.744,1,1.05,0.849,1.31,0.999,1.12,1.17,1.2,0.784,0.759,0.712,0.709,0.667,0.476,0.41,0.447,0.442,0.449
NCI-H1437,1.02,0.987,0.993,0.984,0.997,1.1,1.1,1.17,1.1,1.1,0.416,0.43,0.41,0.397,0.412,0.333,0.294,0.334,0.358,0.302
